The first assay has as its target T1, KSP motor domain (Homo sapiens, UniProt P52732).
T1 sequence (P52732 18-359 limits assumed): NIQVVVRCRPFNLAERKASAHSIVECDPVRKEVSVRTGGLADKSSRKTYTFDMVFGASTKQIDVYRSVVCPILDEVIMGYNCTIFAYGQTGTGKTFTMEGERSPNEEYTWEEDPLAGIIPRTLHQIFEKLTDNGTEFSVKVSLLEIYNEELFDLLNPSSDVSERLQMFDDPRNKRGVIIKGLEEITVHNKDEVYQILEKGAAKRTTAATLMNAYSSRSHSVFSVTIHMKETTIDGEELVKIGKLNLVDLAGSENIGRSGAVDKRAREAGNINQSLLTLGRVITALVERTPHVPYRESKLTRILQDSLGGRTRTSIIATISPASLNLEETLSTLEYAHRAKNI
The experiment in a line: biochemical. The settings on record: KSP inhibitory activity, end-point assay; class symbols (Table 1); read-out: IC50.
On to `COc1ccc([C@@H](CN)NC(=O)c2cc3cc4c(nc3s2)CCC(C(C)(C)C)C4)cc1` (some centres unmarked) [Example 219], for which the IC50 (usually the point on the concentration scale where inhibition reaches its midpoint) is less than 100 nM.
Still for that read-out and setting: under `Cc1cccc([C@@H](CN)NC(=O)c2cc3cc4c(nc3s2)CCC(C(C)(C)C)C4)c1` (some centres unmarked) [Example 220] stands less than 100 nM; under `Cc1ccc([C@@H](CN)NC(=O)c2cc3cc4c(nc3s2)CCC(C(C)(C)C)C4)cc1` (some centres unmarked) [Example 221], less than 100 nM; under `CC(=O)Nc1cccc(C(CN)NC(=O)c2cc3cc4c(nc3s2)CCC(C(C)(C)C)C4)c1` (centres unmarked) [Example 222, 6-tert-butyl-5,6,7,8-tetrahydrothieno[2,3-b]quinoline-2-carboxylic acid [1-(3-acetylaminophenyl)-2-aminoethyl]amide], less than 100 nM.
On the same count and under the same terms, under `CCOC(=O)Nc1cccc(C(CN)NC(=O)c2cc3cc4c(nc3s2)CCC(C(C)(C)C)C4)c1` (centres unmarked) [Example 223, (3-{2-amino-1-[(6-tert-butyl-5,6,7,8-tetrahydrothieno[2,3-b]quinoline-2-carbonyl)amino]ethyl}phenyl)carbamic acid ethyl ester] stands less than 100 nM; under `CC(C)(C)C1CCc2nc3sc(C(=O)NC(CN)c4ccc(C(N)=O)cc4)cc3cc2C1` (centres unmarked) [Example 224, 6-tert-butyl-5,6,7,8-tetrahydrothieno[2,3-b]quinoline-2-carboxylic acid [2-amino-1-(4-carbamoylphenyl)ethyl]amide], less than 100 nM.
The same measure, in the same setting: under `CC(C)(C)C1CCc2nc3sc(C(=O)N[C@H](CN)c4ccccc4)nc3cc2C1` (stereo partly drawn) [Example 225, 6-tert-butyl-5,6,7,8-tetrahydro-thiazolo[5,4-b]quinoline-2-carboxylic acid [2(S)-amino-1-phenyl-ethyl]-amide] stands less than 100 nM; under `CC(C)(C)C1CCc2nc3sc(C(=O)Nc4ccc(O)cc4)cc3cc2C1` (centres unmarked) [Example 226A, 2-(1-Amino-4-Hydroxyphenyl) carboxamido-6-tert-butyl-5,6,7,8-tetrahydrothieno [2,3-b]quinoline], 100 to 1000 nM.
Consider `CC(C)(C)C1CCc2nc3sc(C(=O)Nc4cccnc4)cc3cc2C1` (centres unmarked) [Example 226B], for which the IC50 fell in the range of 100 to 1000 nM.
Consider `CC(C)(C)C1CCc2nc3sc(C(=O)Nc4ccncc4)cc3cc2C1` (centres unmarked) [Example 226C], for which the IC50 was in the range of 100 to 1000 nM.
On the same count and under the same terms, then `CC(C)(C)C1CCc2nc3sc(C(=O)Nc4cccc(N)c4)cc3cc2C1` (centres unmarked) [Example 226D], with 100 to 1000 nM; and `CC(C)(C)C1CCc2nc3sc(C(=O)Nc4ccncc4N)cc3cc2C1` (centres unmarked) [Example 226E], with 100 to 1000 nM.
Take `CC(C)(C)C1CCc2nc3sc(C(=O)Nc4ccc(N)cc4)cc3cc2C1` (centres unmarked) [Example 226F]: the IC50 fell in the range of 100 to 1000 nM.
On the same count and under the same terms, then `CC(C)(C)C1CCc2nc3sc(C(=O)Nc4ccc(O)cc4N)cc3cc2C1` (centres unmarked) [Example 226G], with 100 to 1000 nM.
As to `CC(C)(C)C1CCc2nc3sc(C(=O)Nc4ccc(O)c(N)c4)cc3cc2C1` (centres unmarked) [Example 226H], the IC50 lay in the range of 100 to 1000 nM.
As to `CC(C)(C)C1CCc2nc3sc(C(=O)Nc4ccc(N)nc4)cc3cc2C1` (centres unmarked) [Example 226J], the IC50 fell in the range of 100 to 1000 nM.
As for `CC(C)(C)C1CCc2nc3sc(C(=O)NC(CN)c4cccc(NC(=O)c5cnccn5)c4)cc3cc2C1` (centres unmarked) [Example 227, 6-tert-Butyl-5,6,7,8-tetrahydrothieno[2,3-b]quinoline-2-carboxylic acid (2-amino-1-{3-[(pyrazine-2-carbonyl)amino]phenyl}ethyl)amide], the IC50 is less than 100 nM.
Same read-out and setting: then `CC(C)(C)[C@@H]1CCc2nc3sc(C(=O)N[C@H](CN)c4cccc(NC(=O)c5cnc6ccccc6n5)c4)cc3cc2C1` [Example 228], with less than 100 nM; and `Cc1cc(C(=O)Nc2cccc([C@@H](CN)NC(=O)c3cc4cc5c(nc4s3)CC[C@@H](C(C)(C)C)C5)c2)no1` [Example 229], with less than 100 nM; and `Cc1onc(-c2ccccc2)c1C(=O)Nc1cccc([C@@H](CN)NC(=O)c2cc3cc4c(nc3s2)CC[C@@H](C(C)(C)C)C4)c1` [Example 230], with 100 to 1000 nM.
Take `CC(C)(C)[C@@H]1CCc2nc3sc(C(=O)N[C@H](CN)c4cccc(NC(=O)c5ccno5)c4)cc3cc2C1` [Example 231, 6(R)-tert-butyl-5,6,7,8-tetrahydro-thieno[2,3-b]quinoline-2-carboxylic acid (2-amino-1(S)-{3-[(isoxazole-5-carbonyl)-amino]-phenyl}-ethyl)-amide]: the IC50 is less than 100 nM.
For the compound `CC(C)(C)[C@@H]1CCc2nc3sc(C(=O)N[C@H](CN)c4cccc(NC(=O)c5ccon5)c4)cc3cc2C1` [Example 232], the 50% inhibitory concentration (IC50) is less than 100 nM.
On to `Cc1oncc1C(=O)Nc1cccc([C@@H](CN)NC(=O)c2cc3cc4c(nc3s2)CC[C@@H](C(C)(C)C)C4)c1` [Example 233], for which the IC50 was less than 100 nM.
As for `CC(C)(C)[C@@H]1CCc2nc3sc(C(=O)N[C@H](CN)c4cccc(NC(=O)c5cc(-c6ccccc6)on5)c4)cc3cc2C1` [Example 234], the concentration for half-maximal inhibition (IC50) is less than 100 nM.
Same read-out and setting: under `CC(C)(C)[C@@H]1CCc2nc3sc(C(=O)N[C@H](CN)c4cccc(NC(=O)c5ccns5)c4)cc3cc2C1` [Example 235] stands less than 100 nM.
Still for that read-out and setting: under `CC(C)(C)[C@@H]1CCc2nc3sc(C(=O)N[C@H](CN)c4cccc(NC(=O)c5cc[nH]n5)c4)cc3cc2C1` [Example 236] stands less than 100 nM.
In the case of `CC(C)(C)[C@@H]1CCc2nc3sc(C(=O)N[C@H](CN)c4cccc(NC(=O)c5cn[nH]c5)c4)cc3cc2C1` [Example 237], the half-inhibitory concentration (IC50) was less than 100 nM.
In the case of `Cn1nccc1C(=O)Nc1cccc([C@@H](CN)NC(=O)c2cc3cc4c(nc3s2)CC[C@@H](C(C)(C)C)C4)c1` [Example 238], the concentration for half-maximal inhibition (IC50) is less than 100 nM.
As for `Cn1ccc(C(=O)Nc2cccc([C@@H](CN)NC(=O)c3cc4cc5c(nc4s3)CC[C@@H](C(C)(C)C)C5)c2)n1` [Example 239], the IC50 was less than 100 nM.
On the same count and under the same terms, under `Cn1cc(C(=O)Nc2cccc([C@@H](CN)NC(=O)c3cc4cc5c(nc4s3)CC[C@@H](C(C)(C)C)C5)c2)cn1` [Example 240] stands less than 100 nM.
Same read-out and setting: then `CC(C)(C)[C@@H]1CCc2nc3sc(C(=O)N[C@H](CN)c4cccc(NC(=O)c5ccn(-c6ccccc6)n5)c4)cc3cc2C1` [Example 241], with less than 100 nM; and `Cc1cc(C(=O)Nc2cccc([C@@H](CN)NC(=O)c3cc4cc5c(nc4s3)CC[C@@H](C(C)(C)C)C5)c2)n[nH]1` [Example 242], with less than 100 nM.
Same read-out and setting: then `Cc1[nH]ncc1C(=O)Nc1cccc([C@@H](CN)NC(=O)c2cc3cc4c(nc3s2)CC[C@@H](C(C)(C)C)C4)c1` [Example 243], with less than 100 nM; and `Cc1cc(C(=O)Nc2cccc([C@@H](CN)NC(=O)c3cc4cc5c(nc4s3)CC[C@@H](C(C)(C)C)C5)c2)nn1C` [Example 244], with less than 100 nM.
Take `Cn1ncc(C(=O)Nc2cccc([C@@H](CN)NC(=O)c3cc4cc5c(nc4s3)CC[C@@H](C(C)(C)C)C5)c2)c1C(F)(F)F` [Example 245]: the IC50 was less than 100 nM.
For `Cn1nc(C(F)(F)F)c(C(=O)Nc2cccc([C@@H](CN)NC(=O)c3cc4cc5c(nc4s3)CC[C@@H](C(C)(C)C)C5)c2)c1Cl` [Example 246], the IC50 is less than 100 nM.
On to `CC(C)(C)[C@@H]1CCc2nc3sc(C(=O)N[C@H](CN)c4cccc(NC(=O)c5ncc[nH]5)c4)cc3cc2C1` [Example 247], for which the IC50 was less than 100 nM.
The same measure, in the same setting: then `CC(C)(C)[C@@H]1CCc2nc3sc(C(=O)N[C@H](CN)c4cccc(NC(=O)c5c[nH]cn5)c4)cc3cc2C1` [Example 248], with less than 100 nM; and `Cn1cnc(C(=O)Nc2cccc([C@@H](CN)NC(=O)c3cc4cc5c(nc4s3)CC[C@@H](C(C)(C)C)C5)c2)c1` [Example 249], with less than 100 nM.
Still for that read-out and setting: under `Cn1ccnc1C(=O)Nc1cccc([C@@H](CN)NC(=O)c2cc3cc4c(nc3s2)CC[C@@H](C(C)(C)C)C4)c1` [Example 250] stands less than 100 nM; under `Cn1cncc1C(=O)Nc1cccc([C@@H](CN)NC(=O)c2cc3cc4c(nc3s2)CC[C@@H](C(C)(C)C)C4)c1` [Example 251], less than 100 nM.
Still for that read-out and setting: then `CC(C)(C)[C@@H]1CCc2nc3sc(C(=O)N[C@H](CN)c4cccc(NC(=O)c5ccc[nH]5)c4)cc3cc2C1` [Example 252], with less than 100 nM; and `CC(C)(C)[C@@H]1CCc2nc3sc(C(=O)N[C@H](CN)c4cccc(NC(=O)c5nsc(Cl)c5Cl)c4)cc3cc2C1` [Example 253A], with 100 to 1000 nM; and `CC(C)(C)[C@@H]1CCc2nc3sc(C(=O)N[C@H](CN)c4cccc(NC(=O)c5cnn[nH]5)c4)cc3cc2C1` [Example 253], with 100 to 1000 nM.
In the case of `CC(C)(C)[C@@H]1CCc2nc3sc(C(=O)N[C@H](CN)c4cccc(NC(=O)c5nscc5N)c4)cc3cc2C1` [Example 254], the IC50 was in the range of 100 to 1000 nM.
On the same count and under the same terms, under `CC(C)(C)[C@@H]1CCc2nc3sc(C(=O)N[C@H](CN)c4cccc(NC(=O)c5nsnc5N)c4)cc3cc2C1` [Example 255] stands less than 100 nM; under `CNc1nsnc1C(=O)Nc1cccc([C@@H](CN)NC(=O)c2cc3cc4c(nc3s2)CC[C@@H](C(C)(C)C)C4)c1` [Example 256], less than 100 nM.
The same measure, in the same setting: under `CC(C)(C)[C@@H]1CCc2nc3sc(C(=O)N[C@H](CN)c4cccc(NC(=O)c5csnn5)c4)cc3cc2C1` [Example 257] stands less than 100 nM; under `Cc1nnsc1C(=O)Nc1cccc([C@@H](CN)NC(=O)c2cc3cc4c(nc3s2)CC[C@@H](C(C)(C)C)C4)c1` [Example 258], less than 100 nM.
Same read-out and setting: then `Cc1cnc(C(=O)Nc2cccc([C@@H](CN)NC(=O)c3cc4cc5c(nc4s3)CC[C@@H](C(C)(C)C)C5)c2)cn1` [Example 259], with less than 100 nM.

The same assay, now with this note: exact IC50 values, end-point assay (Table 2); read-out: IC50.
Turning to `CC(C)(C)C1CCc2nc3sc(C(=O)NC(CN)c4cccc(NC(=O)c5cnccn5)c4)cc3cc2C1` (centres unmarked) [Example 227, 6-tert-Butyl-5,6,7,8-tetrahydrothieno[2,3-b]quinoline-2-carboxylic acid (2-amino-1-{3-[(pyrazine-2-carbonyl)amino]phenyl}ethyl)amide], the concentration for half-maximal inhibition (IC50) was 21 nM.
On the same count and under the same terms, under `CC(C)(C)[C@@H]1CCc2nc3sc(C(=O)N[C@H](CN)c4cccc(NC(=O)c5ccns5)c4)cc3cc2C1` [Example 235] stands 23 nM; under `CC(C)(C)[C@@H]1CCc2nc3sc(C(=O)N[C@H](CN)c4cccc(NC(=O)c5cn[nH]c5)c4)cc3cc2C1` [Example 237], 10 nM.
Same read-out and setting: under `Cn1ccnc1C(=O)Nc1cccc([C@@H](CN)NC(=O)c2cc3cc4c(nc3s2)CC[C@@H](C(C)(C)C)C4)c1` [Example 250] stands 19 nM.
As to `CC(C)(C)[C@@H]1CCc2nc3sc(C(=O)N[C@H](CN)c4cccc(NC(=O)c5csnn5)c4)cc3cc2C1` [Example 257], the IC50 is 23 nM.
As to `Cc1cnc(C(=O)Nc2cccc([C@@H](CN)NC(=O)c3cc4cc5c(nc4s3)CC[C@@H](C(C)(C)C)C5)c2)cn1` [Example 259], the IC50 was 17 nM.

The values are drawn from patent publication US20060247320A1, “Compounds for inhibiting KSP kinesin activity” (priority 2005, published 2006).
